The values below come from patent US7105502B2, “Nitric oxide-releasing imidate and thioimidate diazeniumdiolates” (The United States of America as represented by the …, priority 2001, dated 2006).

Experiment [1] can be described thus: Detection of nitrous oxide (N2O) by gas chromatography. In kind it is physicochemical. Conditions: acid (0.1 M HCl). The method, then: (§1) For the detection of NO, selected compounds from the examples were dissolved in either pH 7.4 buffer or 10% H2SO4, and the headspace was swept with argon into a chemiluminescence detector. The detection of nitrous oxide (N2O), formed from the dimerization and dehydration of HNO, was done by gas chromatography in both pH 7.4 buffer and 0.1 M HCl.

Experiment [2] is described as follows: Detection of NO released in solution, headspace swept with argon into a chemiluminescence detector. In kind it is physicochemical. The method, then: The nitrites and all solvents were purchased from Aldrich Chemical Company (Milwaukee, Wis.). Nitric oxide was obtained form Matheson Gas Products (Montgomeryville, Pa.). The ^1H NMR and ^13C NMR spectra were recorded in D2O (^1H at 300 MHz; ^13C at 75 MHz). Ultraviolet spectra (10 mM NaOH unless otherwise specified) and kinetic information were obtained on a Hewlett Packard 8452A UV-visible spectrophotometer with a thermostated cell holder. Infrared data was recorded on a Perkin-Elmer 1430 infrared spectrometer. Nitric oxide was measured with a Thermal Energy Analyzer model 502A (Thermedics, Inc., Woburn, Mass.). Melting points are uncorrected. Elemental analyses were performed by Atlantic Microlab, Inc. (Norcross, Ga.).
as §1

On to “benzyl diazeniumdiolate methoxy imidate [Example 2]”, for which the “N2O (mole gas/mole cmpd)” value in experiment [1] stood at 1.52 mole gas/mole cmpd. The “NO (mole gas/mole cmpd)” value is 0.46 mole gas/mole cmpd in experiment [2] (acid (10% H2SO4)) and 0.36 mole gas/mole cmpd in experiment [2] (pH 7.4 buffer).
Consider “1-naphthyl diazeniumdiolate amide [Example 9]”, for which the “NO (mole gas/mole cmpd)” value in experiment [2] (acid (10% H2SO4)) was found to be 0.02 mole gas/mole cmpd; in experiment [2] (pH 7.4 buffer) it was 0.16 mole gas/mole cmpd.
